Test system: plasma cells (target cells, CD138+; U-266 or NCI-H929)
Test: ICNP-based ADCC assay in microwells, NK cells against plasma cells / U-266 cells under anti-CD38 stimulation, time-lapse PI readout
Format: cell-based
Text: EDTA bone marrow samples were collected from 13 patients with multiple myeloma (MM, 7 de novo and 6 relapses). 8 primary samples were processed through density centrifugation (Ficoll-Pacque; Merck) in order to obtain mononuclear cells while preserving the original composition of the effector (E) and target (T) cells, i.e., NK and plasma cells, respectively. 5 samples were processed with CD138 Antibody coupled to magnetic beads (Miltenyi Biotec) to obtain a population of white blood cells (WBC), a population which comprises NK cells and is depleted of plasma cells.
The resulting cells were co-cultured with U-266 or NCI-H929 cell lines as target cells. […]
The cells from primary or co-culture samples were seeded in 96-well plates, with a final concentration of 2×10^5 cells/well, with variable E:T ratios. […] Each experiment was analyzed by time lapse in fluorescence microscopy for up to 12 hours.
The images for said plurality of microwells are then acquired and, with a detection algorithm, the areas of interest, where each area of interest corresponds to a single cell, for each of said areas of interest, properties which comprise localization, the intensity of certain markers in each fluorescence channel, the cell area, the position of the center of gravity and the morphology are then measured. […]

Daratumumab
plasma cell death with respect to plasma cell - NK cell distance (10 μg/mL, 1,200 microwells, plasma cells in contact with NK cells, decreases as distance increases, FIG. 11E): maximum | death rate of the plasma cells belonging to pattern 2 (spontaneous death or direct effect of the antibody) (10 μg/mL, pattern 2 microwells (only plasma cells, no NK)): 10.86%
